# Patent US9850283B2, “Macrocyclic inhibitors of the PD-1/PD-L1 and CD80(B7-1)/PD-L1 protein/protein interactions” (BRISTOL-MYERS SQUIBB COMPANY, priority 2013, dated 2017)
# Where two headings read alike, the source gives them in different places. Starred links: 1 amine or outer side, 2 acyl side, 3 side chain; linkers in the order of their positions; H or OH if unused. Positions of bridges follow the written chain, without caps; N, C: chain ends. Non-standard residues stand in square brackets, D forms with d. Residues, ends and D or L forms follow the SMILES beside them. ξ: configuration not given here. X19 = CCCOc1cccc(-c2[nH]c3ccccc3c2C[C@H](N[*:1])C(=O)[*:2])c1; Phe(3,4,5-F3) = N[C@@H](Cc1cc(F)c(F)c(F)c1)C(=O)O; Phe(4-COOH) = N[C@@H](Cc1ccc(C(=O)O)cc1)C(=O)O; Phe(3-Cl) = N[C@@H](Cc1cccc(Cl)c1)C(=O)O; Pro(4R-NH2) = N[C@H]1CN[C@H](C(=O)O)C1; d(cisHyp) = O=C(O)[C@H]1C[C@@H](O)CN1; Bta = N[C@@H](Cc1csc2ccccc12)C(=O)O; ξPro(4R-OH) = O=C(O)C1C[C@@H](O)CN1; ξPro(4,4-F2) = O=C(O)C1CC(F)(F)CN1; Hyp = O=C(O)[C@@H]1C[C@@H](O)CN1; NMeF = CN[C@@H](Cc1ccccc1)C(=O)O; ξW = NC(Cc1c[nH]c2ccccc12)C(=O)O; dNMeNle = CCCC[C@@H](NC)C(=O)O; NMeNle = CCCC[C@H](NC)C(=O)O; dPip = O=C(O)[C@H]1CCCCN1; ξR = N=C(N)NCCCC(N)C(=O)O; NMeA = CN[C@@H](C)C(=O)O; Orn = NCCC[C@H](N)C(=O)O; Dap = NC[C@H](N)C(=O)O; ξOrn = NCCCC(N)C(=O)O; ξPip = O=C(O)C1CCCCN1; ξP = O=C(O)C1CCCN1; Sar = CNCC(=O)O
# Key:
# [1] = target: T1, LK35.2-hPD-L1 cells / PE-labeled PD-1-Ig (Homo sapiens, UniProt Q9NZQ7); test: LK35.2-hPD-L1 cell binding high-content screening assay; type: cell-based; conditions: cluster symbol, read-out: CBA IC50 cluster
# T1 construct: expressed in transfected cells; host or cells: LK35.2 mouse B cell line
# Procedure, shortened: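 Mouse LK35.2 B cells stably over-expressing human PD-L1, cultured overnight, treated with compound plus PE-labeled human PD-1-Ig (1 nM final) in RPMI/10% FCS for 1 h at 37 °C. After washing, bound fluorescence quantified by high-content imaging.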
# Human PD-L1/PD-1 = target: T2, Human PD-L1/PD-1 (Homo sapiens, UniProt Q9NZQ7); test: HTRF PD-1-Ig/PD-L1-His binding assay (human PD-L1); conditions: cluster symbol; read-out: HTRF IC50 cluster
# T2 construct: made in house; host or cells: HEK293T
# Procedure, shortened: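 Interaction of Fc-tagged soluble PD-1 with His-tagged soluble PD-L1 is monitored by time-resolved FRET. Donor is europium cryptate anti-Ig (1 nM final) and acceptor is APC anti-His (20 nM final). Assay buffer is dPBS with 0.1% BSA and 0.05% Tween-20.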
# [2] = cell line of CBA not given (LK35.2-hPD-L1 or 293T-hPD-L1)
# T1 sequence (Q9NZQ7 19-290): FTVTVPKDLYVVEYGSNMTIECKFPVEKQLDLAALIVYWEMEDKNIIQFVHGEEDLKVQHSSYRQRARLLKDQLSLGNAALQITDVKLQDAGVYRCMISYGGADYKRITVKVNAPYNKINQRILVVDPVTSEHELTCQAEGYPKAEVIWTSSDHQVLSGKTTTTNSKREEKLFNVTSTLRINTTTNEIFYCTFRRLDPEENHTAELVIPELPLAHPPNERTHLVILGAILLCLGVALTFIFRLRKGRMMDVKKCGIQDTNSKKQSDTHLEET
# T2 sequence (Q9NZQ7 with tags, fused parts or gaps): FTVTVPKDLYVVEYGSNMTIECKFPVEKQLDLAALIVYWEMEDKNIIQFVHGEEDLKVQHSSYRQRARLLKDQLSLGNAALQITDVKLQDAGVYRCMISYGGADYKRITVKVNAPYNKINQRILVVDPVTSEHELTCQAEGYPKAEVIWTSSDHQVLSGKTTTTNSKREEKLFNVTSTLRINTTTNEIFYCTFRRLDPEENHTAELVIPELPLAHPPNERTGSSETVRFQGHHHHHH
"IC50 [1, 2] [nM]",IC50 (Human PD-L1/PD-1) [nM],"IC50 ([1]; cell binding assay, cell line not given) [nM]",SMILES
> 74.3,> 30.5,,CCCC[C@H]1C(=O)N(C)[C@@H](CCCC)C(=O)N[C@@H](CCCNC(=N)N)C(=O)N[C@H](C(=O)NCC(N)=O)CSCC(=O)N[C@@H](Cc2ccc(C(=O)O)cc2)C(=O)N(C)[C@@H](C)C(=O)N[C@@H](CC(N)=O)C(=O)N2CCC[C@H]2C(=O)N[C@@H](Cc2cnc[nH]2)C(=O)N[C@@H](CC(C)C)C(=O)N(C)CC(=O)N[C@@H](Cc2c[nH]c3ccccc23)C(=O)N[C@@H](CO)C(=O)N[C@@H](Cc2c[nH]c3ccccc23)C(=O)N1C [Example 1095] ({CH2CO}-[Phe(4-COOH)][NMeA]NPHL[Sar]WSW[NMeNle][NMeNle]RCG-NH2; thioether N-14)
,0.385 to 6.74,4.78 to 72.9,CCCC[C@H]1C(=O)N(C)[C@@H](CCCC)C(=O)NC(CCCNC(=N)N)C(=O)N[C@H](C(=O)NCC(N)=O)CSCC(=O)N[C@@H](Cc2ccc(O)cc2)C(=O)N(C)[C@@H](C)C(=O)N[C@@H](CC(N)=O)C(=O)N2CCC[C@H]2C(=O)N[C@@H](CN)C(=O)N[C@@H](CC(C)C)C(=O)N2C[C@H](O)C[C@H]2C(=O)N[C@@H](Cc2c[nH]c3ccccc23)C(=O)N[C@@H](CO)C(=O)N[C@@H](Cc2c(-c3cccc(OCCC)c3)[nH]c3ccccc23)C(=O)N1C (some centres unmarked) [Example 7004] ({CH2CO}-Y[NMeA]NP[Dap]L[Hyp]WS[X19][NMeNle][NMeNle][ξR]CG-NH2; thioether N-14)
0.158 to 4.71,6.76 to 30.3,,"CCCC[C@H]1C(=O)N(C)[C@@H](CCCC)C(=O)N[C@@H](CCCNC(=N)N)C(=O)N[C@H](C(=O)NCC(N)=O)CSCC(=O)N[C@@H](Cc2ccc(O)cc2)C(=O)N(C)[C@@H](C)C(=O)N[C@@H](CC(N)=O)C(=O)N2CC(F)(F)CC2C(=O)N[C@@H](Cc2cnc[nH]2)C(=O)N[C@@H](CC(C)C)C(=O)N2CCC[C@H]2C(=O)NC(Cc2c[nH]c3ccccc23)C(=O)N[C@@H](CO)C(=O)N[C@@H](Cc2csc3ccccc23)C(=O)N1C (some centres unmarked) [Example 1048] ({CH2CO}-Y[NMeA]N[ξPro(4,4-F2)]HLP[ξW]S[Bta][NMeNle][NMeNle]RCG-NH2; thioether N-14)"
0.158 to 4.71,0.385 to 6.74,,CCCC[C@H]1C(=O)N(C)[C@@H](CCCC)C(=O)NC(CCCN)C(=O)N[C@H](C(=O)NCC(N)=O)CSCC(=O)N[C@@H](Cc2ccc(O)cc2)C(=O)N(C)[C@@H](C)C(=O)N[C@@H](CC(N)=O)C(=O)N2CCCC2C(=O)N[C@@H](Cc2cnc[nH]2)C(=O)N[C@@H](CC(C)C)C(=O)N2CCC[C@H]2C(=O)N[C@@H](Cc2c[nH]c3ccccc23)C(=O)N[C@@H](CO)C(=O)N[C@@H](Cc2csc3ccccc23)C(=O)N1C (some centres unmarked) [Example 1042] ({CH2CO}-Y[NMeA]N[ξP]HLPWS[Bta][NMeNle][NMeNle][ξOrn]CG-NH2; thioether N-14)
> 74.3,> 30.5,,CCCC[C@H]1C(=O)N(C)[C@@H](CCCC)C(=O)N[C@@H](CCCNC(=N)N)C(=O)N[C@H](C(=O)NCC(N)=O)CSCC(=O)N[C@@H](Cc2cccc(Cl)c2)C(=O)N(C)[C@@H](C)C(=O)N[C@@H](CC(N)=O)C(=O)N2CCC[C@H]2C(=O)N[C@@H](Cc2cnc[nH]2)C(=O)N[C@@H](CC(C)C)C(=O)N(C)CC(=O)N[C@@H](Cc2c[nH]c3ccccc23)C(=O)N[C@@H](CO)C(=O)N[C@@H](Cc2c[nH]c3ccccc23)C(=O)N1C [Example 1102] ({CH2CO}-[Phe(3-Cl)][NMeA]NPHL[Sar]WSW[NMeNle][NMeNle]RCG-NH2; thioether N-14)
0.158 to 4.71,0.385 to 6.74,,"CCCC[C@H]1C(=O)N2C[C@H](O)C[C@@H]2C(=O)N2C[C@H](N)C[C@H]2C(=O)N[C@@H](C(C)C)C(=O)N(C)[C@@H](Cc2ccccc2)C(=O)N[C@@H](Cc2ccc(O)cc2)C(=O)N2CCCC[C@@H]2C(=O)N[C@@H](Cc2c[nH]c3ccccc23)C(=O)N[C@@H](Cc2ccc(O)cc2)C(=O)N[C@@H](CC(C)C)C(=O)N[C@H](C(=O)NCC(N)=O)CSCC(=O)N[C@@H](Cc2cc(F)c(F)c(F)c2)C(=O)N(C)[C@@H](Cc2ccccc2)C(=O)N1C [Example 3196] ({CH2CO}-[Phe(3,4,5-F3)][NMeF][NMeNle][d(cisHyp)][Pro(4R-NH2)]V[NMeF]Y[dPip]WYLCG-NH2; thioether N-13)"
0.158 to 4.71,6.76 to 30.3,,CCCC[C@@H]1C(=O)N(C)[C@H](CCCC)C(=O)N[C@@H](CCCN)C(=O)N[C@@H](C(=O)NCC(N)=O)CSCC(=O)N[C@@H](Cc2ccc(O)cc2)C(=O)N2CCCCC2C(=O)N[C@H](CC(=O)O)C(=O)N2CCC[C@H]2C(=O)N[C@H](Cc2c[nH]cn2)C(=O)N[C@@H](CCC(=O)O)C(=O)N2C[C@H](O)CC2C(=O)N[C@H](Cc2c[nH]c3ccccc23)C(=O)N[C@@H](CO)C(=O)N[C@@H](Cc2c[nH]c3ccccc23)C(=O)N1C (stereo partly drawn) [Example 1219] ({CH2CO}-Y[ξPip][dD]P[dH]E[ξPro(4R-OH)][dW]SW[dNMeNle][dNMeNle][Orn][dC]G-NH2; thioether N-14)
